In patent US20140113904A1, “TREATMENT OF CANCER WITH TOR KINASE INHIBITORS” (SIGNAL PHARMACEUTICALS, LLC, priority 2012, published 2014):

Columns and labels:
[1] = system: pS6; assay: pS6 in PC3 tumors, MSD (Compound 1); format: in vivo, SCID mice; conditions: for pS6 inhibition in tumor: through 24 hours
Description: The plasma and tumor samples were collected at various time points following compound administration as described.
Mice were monitored daily for clinical signs and body weight changes. At the end of the study, mice were euthanized and plasma and tumor samples were collected for PK/PD determination. PD markers, pS6 and pAkt, were measured using MSD technology.
After the last measurement, the experiment was terminated by taking the plasma and tumor samples for PK and PD measurements. Compound concentrations in plasma and tumor were determined by LC-MS/MS. PD markers, pS6 and pAkt, were measured using MSD technology.
At predetermined time points following dosing, mice were euthanized and plasma and tumor samples were collected for PK/PD determination. Compound concentrations in plasma and tumor were determined by LC-MS/MS. PD markers, pS6 and pAkt, were measured using Mesoscale technology.
For Mesoscale discovery assays, tissue samples were homogenized in lysis buffer containing protease and phosphatase inhibitors and centrifuged for 10 minutes at 1200 rpm at 4° C. Supernatants were sonicated for 1 minute at 4° C., aliquoted and stored at −80° C. Protein concentrations in samples were determined using BCA Protein Assay Reagent Kit (Thermo Scientific). Meso Scale Discovery kits and protocol for measuring the pS6 and pAkt/Total Akt kits were used. MSD 96-well plates spotted with pS6, pAkt/total Akt were blocked with blocking solution for 5 minutes followed by a wash with wash buffer. […] of tumor lysates were added to each well and incubated for 2 hours followed by a 4× wash with a wash buffer. Detection antibody was added to each well and incubated in the dark for 1 hour at 4° C. The plates were then washed and bound antigen was read using an MSD SECTOR™ instrument.

[2] = system: PC3 tumors; assay: Apoptosis TUNEL assay in PC3 tumors (Compound 1, rapamycin); format: in vivo, SCID mice; conditions: 25 mg/kg oral QD for 6 days, 2 hours after last dose
Description: (§1) Two hours after the last dose of either vehicle, Compound 1, or rapamycin, the mice were euthanized and the tumors were dissected. The tumors were snap frozen in liquid nitrogen and processed for immunohistochemistry (IHC) and TUNEL.
To detect the apoptotic cells, fluorescence in situ cell death detection kit (Roche Biosciences) was used. Five to ten micron thick cryostat sections were fixed in 4% paraformaldehyde for 15 minutes at room temperature, washed, permeabilized with 0.3% triton X-100 and 0.1% sodium citrate in PBS for 10 minutes. Sections were then washed in PBS and incubated with a labeling solution containing TdT enzyme for 1 hour at 37° C. in the dark. The sections were washed in PBS, counterstained with Hoechst dye (0.4 μg/mL) at room temperature for 10 minutes and mounted in Prolong Gold antifade reagent.
(§2) The tissues sections processed for apoptosis or immunostained for proliferating cells (Ki-67) or blood vessels were quantitated using Metamorph software. Using 20× objective, 5 different fields from each section, 2 to 4 sections from each tumor, and 3 to 4 tumors from each treatment group or control were used for quantitation. The area of interest was expressed as the percent threshold area of the total area.

[3] = system: CD-31; assay: CD-31 immunohistochemistry in PC3 tumors (Compound 1); format: in vivo, SCID mice; conditions: 25 mg/kg oral QD for 6 days, 2 hours after last dose
Description: as §1
Five to ten micron thick cryostat sections of tumor samples were used for IHC. The expression of a cell proliferation marker Ki-67 was evaluated by IHC using anti-Ki-67 antibody. Anti-CD-31 antibody was used to determine blood vessel density and is a measurement of tumor angiogenesis. Frozen sections were fixed in 4% paraformaldehyde for 10 minutes at room temperature, washed in PBS, blocked and permeabilized with normal goat serum and triton x-100. Sections were then incubated with primary antibody (overnight) followed by incubation with secondary antibody (60 minutes). […] The sections were visualized with a Nikon E800 microscope equipped with fluorescence detection equipment and a digital camera attached to a computer.
as §2

[4] = system: GSK3β (S9); assay: Phospho-GSK3Beta (S9) in PC-3 cell lysates, MSD (Compound 2); format: cell-based; conditions: Homo sapiens; PC-3, 1 hour; read-out: mTORC2 GSK3β (S9) IC50
Description: The direct substrate for mTORC1 was 4E-BP1(T46) and the indirect downstream substrate was S6RP (S235/S236). The direct substrate for mTORC2 was AKT (S473) and the indirect downstream substrates measured were GSK3β(S9) and PRAS40 (T246). Additionally, the phosphorylation status of AKT (T308), a phosphorylation site for PDK1, was monitored. Concentration-response curves were plotted and IC50 values determined. Cells were plated in 96-well flat bottom plates at the required density (PC-3 cells/well) and the cells were allowed to equilibrate at 37° C., 5% CO2 overnight. […] After the incubation period, the culture media was removed carefully with an aspirator. The plate was placed on ice and 50 μL of 1× Tris Lysis Buffer was added to each well. The plate was placed on a shaker at 4° C. for 1 hour to lyse the cells. At that point, the plate was either frozen at -80° C. for later analysis or immediately assayed for phosphoproteins as described below. To monitor interassay variability, a reference standard was included in the assay for PC-3 cells and the coefficient of variation for assay of […]) was 9.3% (n=50) and for assay of p-AKT (S473) was 28.6% (n=50). The assay plate was incubated with 150 μL of MSD Blocking Buffer for 1 hour with shaking at room temperature. […] Then 150 μL of 1×MSD Read Buffer T was added to each well. The plate was read on the SECTOR Imager plate reader.

With `CO[C@H]1CC[C@H](N2C(=O)CNc3ncc(-c4ccc(C(C)(C)O)nc4)nc32)CC1` [Compound 1, 7-(6-(2-hydroxypropan-2-yl)pyridin-3-yl)-1-((1r,4r)-4-methoxycyclohexyl)-3,4-dihydropyrazino-[2,3-b]pyrazin-2(1H)-one] the “inhibition of pS6” value ([1]; 0.3 mg/kg single dose, 0.5 h, data not shown) was 81%, the pS6 inhibition ([1]; 0.3 mg/kg single dose, up to 2 hours, data not shown) was “Approximately 80%” and the pS6 inhibition ([1]; 1 mg/kg single dose, up to 4 hours) was “Approximately 80%”. The “PD Marker Inhibition (%) pS6” value ([1]; 1 mg/kg single oral dose, 0.5 h) was 80.8%, the “PD Marker Inhibition (%) pS6” value ([1]; 1 mg/kg single oral dose, 2 h) was 82.8% and the “PD Marker Inhibition (%) pS6” value ([1]; 1 mg/kg single oral dose, 4 h) was 78.6%. For the same molecule, the “PD Marker Inhibition (%) pS6” value ([1]; 1 mg/kg single oral dose, 6 h) was 53.1%, the “PD Marker Inhibition (%) pS6” value ([1]; 1 mg/kg single oral dose, 10 h) was 14.4% and the “PD Marker Inhibition (%) pS6” value ([1]; 1 mg/kg single oral dose, 24 h) was 20.6%. The “inhibition of pS6 in tumors” value ([1]; 10 mg/kg QD 5 days, 24 hours after the last dose) was 22%, the “inhibition of pS6” value ([1]; 10 mg/kg single dose, up to 8 hours) was > 80% and the “PD Marker Inhibition (%) pS6” value ([1]; 10 mg/kg single oral dose, 1 h) was 79.5%. For the same molecule, the “PD Marker Inhibition (%) pS6” value ([1]; 10 mg/kg single oral dose, 3 h) was 91.9%, the “PD Marker Inhibition (%) pS6” value ([1]; 10 mg/kg single oral dose, 8 h) was 91.2% and the “PD Marker Inhibition (%) pS6” value ([1]; 10 mg/kg single oral dose, 16 h) was 32.4%. For the same molecule, the “PD Marker Inhibition (%) pS6” value ([1]; 10 mg/kg single oral dose, 24 h) was 32.7%, the “PD Marker Inhibition (%) pS6” value ([1]; 10 mg/kg single oral dose, 48 h) was 39.5% and the “PD Marker Inhibition (%) pS6” value ([1]; 10 mg/kg single oral dose, 72 h) was 47.9%. The “inhibition of pS6 levels” value ([1]; 25 mg/kg single dose, up to 24 hours) was > 80%, the “PD Marker Inhibition (%) pS6” value ([1]; 25 mg/kg single oral dose, 1 h) was 87.9% and the “PD Marker Inhibition (%) pS6” value ([1]; 25 mg/kg single oral dose, 3 h) was 95.1%. For the same molecule, the “PD Marker Inhibition (%) pS6” value ([1]; 25 mg/kg single oral dose, 8 h) was 92.3%, the “PD Marker Inhibition (%) pS6” value ([1]; 25 mg/kg single oral dose, 16 h) was 92.1% and the “PD Marker Inhibition (%) pS6” value ([1]; 25 mg/kg single oral dose, 24 h) was 83.7%. For the same molecule, the “PD Marker Inhibition (%) pS6” value ([1]; 25 mg/kg single oral dose, 48 h) was 47.2%, the “PD Marker Inhibition (%) pS6” value ([1]; 25 mg/kg single oral dose, 72 h) was 68.3% and the “pS6 inhibition in tumor” value ([1]; 30 mg/kg single oral dose) was 78%. For the same molecule, the “pS6 inhibition in tumor” value ([1]; 100 mg/kg single oral dose) was 91%, the “both PD markers (pS6, pAKT) in tumors” value ([1]; 25 and 50 mg/kg QD, 24 hr timepoint, data not shown) was “significantly inhibited” and the “TUNEL-positive cells compared with the vehicle control” value [2] was “about a two fold increase”. The “CD-31 positive blood vessels vs vehicle” value [3] was “significantly (p<0.01) fewer”.

`CCN1C(=O)CNc2ncc(-c3ccc(-c4nc[nH]n4)nc3C)nc21` [Compound 2, 1-ethyl-7-(2-methyl-6-(1H-1,2,4-triazol-3-yl)pyridin-3-yl)-3,4-dihydropyrazino[2,3-b]pyrazin-2(1H)-one] gave an IC50 [4] of 17 nM.
